# Reference: the supplement of paper PMC7661543
# ± gives the standard deviation of the averaged measurements.
# Tests used:
# Assay in all cases: relative cell number vs DMSO control (72 h) (% of DMSO); higher = less growth inhibition (more cells)
# Settings in all cases: sgRNA knockout: sgNT
# BT-20 = test system: BT-20
# Procedure: (§1)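 QMAP-Seq: a pool of 5 breast cancer cell lines (ZR-75-1, SKBR3, HCC-38, MDA-MB-231, BT-20), each carrying 12 doxycycline-inducible Cas9 sgRNA perturbations (11 knockouts plus non-targeting sgNT), was treated with compounds for 72 h at four 10-fold doses (10 nM-10 uM or 1 nM-1 uM range). Barcodes were amplified and sequenced, and cell number was interpolated from 293T spike-in standard curves. The result is expressed as % of the median of DMSO wells. Two biological replicates.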
# HCC-38 = test system: HCC-38
# Procedure: as §1
# MDA-MB-231 = test system: MDA-MB-231
# Procedure: as §1
# SKBR3 = test system: SKBR3
# Procedure: as §1
# ZR-75-1 = test system: ZR-75-1
# Procedure: as §1
SMILES,relative cell number (BT-20; 10 nM),relative cell number (BT-20; 100 nM),relative cell number (BT-20; 1000 nM),relative cell number (BT-20; 10000 nM),relative cell number (HCC-38; 10 nM),relative cell number (HCC-38; 100 nM),relative cell number (HCC-38; 1000 nM),relative cell number (HCC-38; 10000 nM),relative cell number (MDA-MB-231; 10 nM),relative cell number (MDA-MB-231; 100 nM),relative cell number (MDA-MB-231; 1000 nM),relative cell number (MDA-MB-231; 10000 nM),relative cell number (SKBR3; 10 nM),relative cell number (SKBR3; 100 nM),relative cell number (SKBR3; 1000 nM),relative cell number (SKBR3; 10000 nM),relative cell number (ZR-75-1; 10 nM),relative cell number (ZR-75-1; 100 nM),relative cell number (ZR-75-1; 1000 nM),relative cell number (ZR-75-1; 10000 nM)
CCn1c(=O)c2c(nc(/C=C/c3ccc(OC)c(OC)c3)n2C)n(CC)c1=O [Istradefylline],109 ± 12,104 ± 5.7,94.8 ± 12,106 ± 8.2,88.28 ± 0.69,99.3 ± 24,93.3 ± 8.3,106 ± 2.4,86 ± 1.8,146 ± 30,93.8 ± 5.8,105 ± 43,80.5 ± 18,84.2 ± 5.3,99.5 ± 23,112 ± 15,128 ± 37,114 ± 3.4,110 ± 7.6,94.9 ± 19
O=C(c1ccc(/C=C/c2n[nH]c3ccccc23)cc1)N1CCNCC1 [KW2449],109 ± 15,89.6 ± 4.7,113 ± 20,79.4 ± 13,88 ± 8,87.64 ± 0.15,81 ± 5.1,42.2 ± 5.9,103 ± 14,116 ± 35,78.79 ± 0.17,35.4 ± 8.4,69 ± 16,72.7 ± 10,104 ± 5.3,73.1 ± 49,75.6 ± 8.1,104 ± 3.9,48.8 ± 12,56 ± 10
O=C(Cc1ccc(-c2ccc(OCCN3CCOCC3)cc2)cn1)NCc1ccccc1 [KX2391],127 ± 31,36.5 ± 7.8,33.3 ± 7,31.8 ± 10,139 ± 16,24.4 ± 0.93,24.1 ± 1.9,30.8 ± 3.4,108 ± 56,30.3 ± 9.2,18 ± 2.3,19.78 ± 0.15,91.5 ± 17,17.8 ± 2,8.71 ± 3,10.3 ± 2.5,132 ± 43,24.8 ± 2.5,24.6 ± 4.9,17.8 ± 8.4
COc1cc(C(=O)N2CCC(N3CCN(C)CC3)CC2)ccc1Nc1ncc2c(n1)N(C)c1ccccc1C(=O)N2C [LRRK2IN1],116 ± 14,93.7 ± 7.9,93.8 ± 15,38.2 ± 4,100 ± 8.9,84.8 ± 7,67.3 ± 4,42.4 ± 1.1,123 ± 3.5,96.6 ± 1.3,44.2 ± 7.9,16 ± 2.8,111 ± 44,70.9 ± 6,71 ± 31,32.9 ± 13,106 ± 7,152 ± 59,69.4 ± 3,19.1 ± 5.2
CS(=O)(=O)CCNCc1ccc(-c2ccc3ncnc(Nc4ccc(OCc5cccc(F)c5)c(Cl)c4)c3c2)o1 [Lapatinib],96.3 ± 16,84.7 ± 12,78.7 ± 9.5,77 ± 4.7,97.5 ± 7,87 ± 6.9,89.7 ± 7.5,60.2 ± 1.2,120 ± 15,90 ± 36,83.6 ± 3,38.2 ± 8.8,77.6 ± 11,73.9 ± 0.55,64.9 ± 19,16.3 ± 2.1,112 ± 32,63.6 ± 13,86.8 ± 17,33.4 ± 10
COc1cc2nccc(Oc3ccc(NC(=O)NC4CC4)c(Cl)c3)c2cc1C(N)=O [Lenvatinib],94.9 ± 21,97.5 ± 14,128 ± 7.1,93.5 ± 36,95.3 ± 5.8,96.8 ± 4.3,101 ± 33,68.4 ± 10,94.7 ± 34,122 ± 7.1,114 ± 15,86.5 ± 25,111 ± 9.8,92.6 ± 8.6,85.9 ± 42,94.1 ± 35,84.1 ± 11,92.2 ± 22,108 ± 20,90.8 ± 15
